From patent US20100047327A1, “Adjuvant for Transdermal or Transmucosal Administration and Pharmaceutical Preparation Containing the Same” (priority 2007, published 2010)

Experiments:
[1] = system: OVA specific IgG antibody; experiment: OVA specific IgG antibody titer by ELISA, intracutaneous OVA plus transdermal adjuvant; assay type: in vivo, BALB/c mouse; conditions: for Antibody titer (×10^4): OVA 10 μg/head intracutaneous, then 25 μL adjuvant applied transdermally, dosing at 0, 2, 4 weeks, data after five weeks; for immune response of the antigen IgG: intracutaneous OVA plus transdermal adjuvant on intact skin, in words
Procedure: OVA (an antigen: Ovalbumin, Sigma Company) was prepared by dissolving it in physiological saline to give 10 μg/head, and to the OVA alone group, 25 μL of OVA aqueous solution was administered intracutaneously. To the group in which various kinds of adjuvants (lauryl alcohol, oleyl alcohol, isostearyl alcohol, octyl dodecanol, polyethylene glycol monolaurate and Freund complete adjuvant (FCA)) were used in combination, immediately after OVA solution was administered intracutaneously, 25 μL of each adjuvant solution was administered (applied) transdermally on the abdominal skin surface. Administration was carried out 0, 2 and 4 weeks later, and blood collection was carried out 2, 4 and 5 weeks later, and OVA specific IgG antibody titer after 2, 4 and 5 weeks was measured by ELISA.

[2] = Skin irritation score, intracutaneous versus transdermal administration; assay type: in vivo, BALB/c mouse; parameters: Skin irritation score Intracutaneous administration: key to the marks not given beside the values; conditions: for Skin irritation score Transdermal administration: 50 μL of acetone solution (50%) applied transdermally
[3] = system: MHC Class II molecule of the lymph cell; experiment: Expression of MHC Class II molecule of lymph cells by flow cytometry after transdermal administration of adjuvant; assay type: in vivo, BALB/c mouse; conditions: FIG. 1; for number of the lymph cells expressing an MHC Class II molecule: 50 μL of acetone solution (50%) applied transdermally to shaved abdomen, lymph node five days later
[4] = system: OVA specific IgG antibody; experiment: OVA specific IgG antibody titer, antigen-coated microneedle after lauryl alcohol applied to skin; assay type: in vivo, hairless rat; conditions: LA applied to skin before puncture with OVA-coated microneedle (2 mg/patch, two hours); FIG. 3
Procedure: OVA was prepared in the abdomen of the male hairless rat of seven to eight weeks old to give 2 mg/patch, and in the microneedle group, the needle part of the microneedle was coated with an antigen and 5% polyvinyl alcohol liquid, and physiological saline was dropped on the skin side, and punctured for two hours. In addition, in microneedle+lauryl alcohol group, lauryl alcohol was applied to skin beforehand, physiological saline was dropped on the skin side, and the needle of the microneedle coated with the above-described antigen and 5% polyvinyl alcohol liquid was punctured for two hours. Administration was carried out 0, 2 and 4 weeks later, and blood collection was carried out 2, 4 and 5 weeks later, and OVA specific IgG antibody titers were measured by ELISA.

[5] = system: OVA specific IgG antibody; experiment: OVA specific IgG antibody titer by ELISA, OVA/LA emulsion with microneedle, skin abrading or iontophoresis; assay type: in vivo, BALB/c mouse; conditions: FIG. 2
Procedure: OVA was prepared to give 100 μg/head, and to the OVA alone group, OVA aqueous solution was applied, and in the group in which lauryl alcohol (LA) was used in combination, the solution in which OVA solution, LA and Tween 20 (emulsifier) was mixed in the ratio of 1:1:0.01 which was emulsified was prepared and used. In the microneedle application group, 1 cm^2 of a microneedle (needle length: about 200 μm, 400 needles/cm^2) was punctured to abdominal skin that had been shaved beforehand, thereafter 50 μL of the above-mentioned emulsion solution was applied immediately. In addition, in skin abrading treatment group, skin was abraded five times using 3M RED Dot™ 2236 instead of a microneedle, thereafter 50 μL of the emulsion solution was applied. In iontophoresis application group, 50 μL of the emulsion solution was applied to shaved abdominal skin, thereafter an iontophoresis preparation (a non-woven fabric preparation: Ag, Ag/AgCl 1 cm^2) in which physiological saline was impregnated to the non-woven fabric was affixed in the applied part, and a direct current (0.4 mA/patch) was applied for one hour. Administration was carried out 0, 2 and 4 weeks later, and blood collection was carried out 2, 4 and 5 weeks later, and OVA specific IgG antibody titers were measured by ELISA.

[6] = system: OVA specific IgG antibody; experiment: OVA specific IgG antibody titer, microneedle coated with antigen emulsion; assay type: in vivo, hairless rat; conditions: microneedle coated with emulsion antigen solution:oil or alcohol:Tween 80 1:1:0.01, OVA 2 mg/patch, two hours; FIG. 4
Procedure: OVA was prepared in the abdomen of the male hairless rat of seven to eight weeks old to give 2 mg/patch, and in the microneedle (OVA+5% polyvinyl alcohol) group, the needle part of the microneedle was coated with an antigen and 5% polyvinyl alcohol liquid [mixed in antigen solution:10% polyvinyl alcohol=1:1], and punctured for two hours. In addition, in microneedle (OVA+olive oil) or (OVA+lauryl alcohol) group, emulsion [antigen solution:olive oil or lauryl alcohol:surfactant (Tween 80)=1:1:0.01] was coated on the needle of the microneedle and punctured it for two hours. Administration was carried out 0, 2 and 4 weeks later, and blood collection was carried out 2, 4 and 5 weeks later, and OVA specific IgG antibody titers were measured by ELISA.

OVA = experiment: Antibody titer after oral mucosal administration of OVA plus LA emulsion; assay type: in vivo, BALB/c mouse; conditions: OVA 2500 μg/head, LA groups (20) and (50), boost after one week, blood after two weeks; FIG. 7
influenza H3N2 = experiment: Antibody titer after transnasal administration of influenza H3N2 antigen plus LA; conditions: influenza H3N2 1 μg/head, antigen solution:LA:Tween 80 9:1:0.05; FIG. 6
Procedure: To a male BALB/c mouse of seven to eight weeks old, under inhalation anesthesia (Sevofrane) with matching with breathing, 50 μL of antigen (influenza H3N2 (Biogenesis company): 1 μg/head) was administered to a nose by dripping (transnasal (antigen)). The antigen+LA, [mixed in antigen solution:LA:surfactant (Tween 80)=9:1:0.05] was administered to a nose by dripping (transnasal (antigen+LA)).
In addition, in the intracutaneous treatment group, the abdomen was shaved under Nembutal anesthesia, 50 mL of antigen (influenza H3N2: 0.07 μg/head) was administered intracutaneously (intracutaneous (antigen)). The antigen+LA, [mixed in antigen solution:LA:surfactant (Tween 80)=1:1:0.01] was administered intracutaneously (intracutaneous (antigen+LA)). Boost was made in the same condition 2 and 4 weeks after the first time administration, and blood was collected from fundus after 2, 4 and 5 weeks and antibody titers were measured.

[7] = system: OVA specific IgG antibody; experiment: OVA specific IgG antibody titer, microneedle coated with antigen emulsion; assay type: in vivo, BALB/c mouse; conditions: microneedle coated with emulsion antigen solution:alcohol:Tween 80 1:1:0.01, OVA 0.1 mg/patch, two hours; FIG. 5
Procedure: In addition, in microneedle (OVA+lauryl alcohol or OVA+oleyl alcohol) group, emulsion [antigen solution:lauryl alcohol or oleyl alcohol:surfactant (Tween 80)=1:1:0.01] was coated on the needle of the microneedle and punctured it for two hours. Administration was carried out 0, 2 and 4 weeks later, and blood collection was carried out 2, 4 and 5 weeks later, and OVA specific IgG antibody titers were measured by ELISA.

Which “Antibody titer (×10^4)” value [1] does the source give for `CC(C)CCCCCCCCCCCCCCCO` [Isostearyl alcohol, isostearyl alcohol] here?
Its value is 1.3 ×10^4.

What about the “Skin irritation score Transdermal administration” value [2] of the same compound?
The value was “not detected”.

What about the “number of the lymph cells expressing an MHC Class II molecule” value (“number” for short) [3] of the same compound?
The value was “remarkable increase”.

Which results are given for `CCCCCCCCCCCCO` [Lauryl alcohol, lauryl alcohol]?
OVA specific IgG antibody titer [4]: remarkably increased; Antibody titer (×10^4) [1]: 2.1 ×10^4; immune response of the antigen IgG [1]: highest immune response; antigen specific IgG, iontophoresis (IP+LA) ([5]; OVA 100 μg/head, OVA:LA:Tween 20 1:1:0.01 emulsion, 0.4 mA/patch for one hour, four weeks later): highest immune response; antigen specific IgG, skin abrading pre-treatment (abrading+LA) ([5]; OVA 100 μg/head, emulsion applied after abrading, four weeks later): high immune response; antigen specific IgG, microneedle (microneedle+LA) ([5]; OVA 100 μg/head, emulsion applied after microneedle puncture, four weeks later): high immune response; antibody titer compared to antigen administered alone ([5]; lauryl alcohol used together with OVA): significant increase; OVA specific IgG antibody titer [6]: remarkably increased; Skin irritation score Transdermal administration [2]: not detected; number of the lymph cells expressing an MHC Class II molecule [3]: remarkable increase; adjuvant effect (MHC Class II expression), comparison among adjuvants ([3]; transdermal administration): most remarkable; antibody titer, oral mucosal administration (OVA): increase of the antibody titer was observed depending on the LA concentration; antibody titer, transnasal (antigen+LA) versus antigen alone (influenza H3N2): increase of the antibody titer was observed; OVA specific IgG antibody titer [7]: remarkably increased

Which results are given for `CCCCCCCCCCC(CO)CCCCCCCC` (stereo not drawn) [Octyl dodecanol, octyl dodecanol]?
Antibody titer (×10^4) [1]: 0.6 ×10^4; Skin irritation score Transdermal administration [2]: not detected

For `CCCCCCCC/C=C\CCCCCCCCO` [Oleyl alcohol, oleyl alcohol], which “Antibody titer (×10^4)” value [1] is on record?
Its value is 2.1 ×10^4.

What about the “immune response of the antigen IgG” value [1] of the same compound?
Its value is “highest immune response”.

And the “Skin irritation score Intracutaneous administration” value ([2]; mouse, in vivo)?
The value was “+++”.

What about the “number” value [3] of the same compound?
The value was “remarkable increase”.

And the “OVA specific IgG antibody titer” value [7]?
The value was “remarkably increased”.

For `CCCCCCCC/C=C\CCCCCCCC(=O)O` [oleic acid], which “number” value [3] is on record?
Its value is “remarkable increase”.

With polyethylene glycol monolaurate as the compound, how does the “Antibody titer (×10^4)” value [1] read?
Its value is 0.9 ×10^4.

What about the “Skin irritation score Transdermal administration” value [2] of the same compound?
The value was “not detected”.

Which “Skin irritation score Transdermal administration” value [2] does the source give for sorbitan monolaurate here?
Its value is “not detected”.

What about the “number” value [3] of the same compound?
The value was “remarkable increase”.

Which “number” value [3] does the source give for sorbitan monooleate here?
Its value is “remarkable increase”.
